# Measurements as given in publication PMC11352273, “The Proapoptotic Action of Pyrrolidinedione–Thiazolidinone Hybrids towards Human Breast Carcinoma Cells Does Not Depend on Their Genotype” (Cancers, 2024).
# “And” between values parts separate entries of the source, which are not always exact repeats. Equal values may be shown once. Read-outs that look alike come from different tables or passages of the source.
# How the values were obtained:
# [1] = system: MAP1LC3B in MDA-MB-231 cells; experiment: qPCR gene expression; assay type: cell-based, human; details: MDA-MB-231, 24 h, 1 µM
# Experimental: (§1) Total RNA was isolated using the RNeasy Mini Kit (Qiagen, Venlo, The Netherlands) according to the manufacturer’s protocol and quantified on a NanoDrop spectrophotometer (NanoDrop™ One/OneC, ThermoFisher, Waltham, MA, USA). Next, 1 μg of RNA from every sample was reverse transcribed using a High-Capacity cDNA Reverse Transcription Kit (ThermoFisher, Waltham, MA, USA) according to the standard manufacturer’s instructions. The expression of genes, namely MAP1LC3b (Bio-Rad, Hercules, CA, USA) and BECN1 (Bio-Rad, Hercules, CA, USA), was evaluated using SsoAdvanced Universal SYBR Green Supermix (Bio-Rad, Hercules, CA, USA) on the StepOne Plus system (ThermoFisher, Waltham, MA, USA). StepOne Software v2.3 (Thermo Fisher Scientific, Waltham, MA, USA) was used for results calculations. The results were normalized to GAPDH (Bio-Rad, Hercules, CA, USA) and untreated cells (control). Data were presented as a relative expression using the 2^−ΔΔCt method.
# [2] = system: BECN1 in MDA-MB-231 cells; experiment: qPCR gene expression; assay type: cell-based, human; details: MDA-MB-231, 24 h, 1 µM
# Experimental: as §1
# MCF-10A cells [3] = experiment: MTT assay; assay type: cell-based, human; details: Homo sapiens, MCF-10A, MCF-10A
# Experimental: (§2) The MCF-7 and MDA-MB-231 cells were cultured in the DMEM medium containing 10% of the FBS, HCC1954, T-47D, and 4T1 cells in the RPMI-1640 medium with the addition of 10% of the FBS, and MCF-10A cells in MEGM Mammary Epithelial Cell Growth Medium BulletKit supplemented with penicillin/streptomycin cocktail and 5% of horse serum. The cells were cultured in a […] atmosphere at 5% CO2 and 37 °C. After trypsinization, cells were counted using a Scepter 3.0 handheld automated cell counter (Millipore, Burlington, MA, USA).
# (§3) The MTT test was used to assess the metabolic activity of cells treated with the investigated substances following the Sigma-Aldrich manufacturer’s instructions. Briefly, compounds were added in 100 µL of the cultural medium, and cells were incubated for the next 24 and 48 h. Doxorubicin was used as a reference drug. The DMSO was added to dissolve the crystals of formazan. We used the ThermoScientific Evolution 201 UV–VIS spectrophotometer (ThermoFisher Scientific, Waltham, MA, USA) to measure the absorbance of formazan at 570 nm. The initial value of the relative number of cells in control (under 0.1% of the DMSO) was accepted as 100%. We used GraphPad Prism Version 9 to calculate the half-maximal inhibition concentration (IC50) of the studied compounds (the concentration of the drug that reduced cell viability by 50%).
# [4] = system: MMP-9 in MDA-MB-231 cells; experiment: MMP-9 ELISA in culture supernatants; assay type: cell-based, human; details: MDA-MB-231, 24 h, all examined doses
# Experimental: (§4) In order to determine the Beclin-1 concentration in the cell lysates, the SimpleStep ELISA (Abcam, Cambridge, UK) Kit was used. MMP-2, MMP-9, and ICAM-1 concentrations were measured in culture supernatants using high-sensitivity human SimpleStep ELISA kits (Abcam, Cambridge, UK) according to the manufacturer’s protocols. The LC3B ELISA kit (BT LAB, Shanghai, China) was used to check the protein concentration in cell lysates from analyzed breast cancer cells. The procedure for preparing the samples was shown previously.
# MCF-7 cells [5] = experiment: Annexin V/PI flow cytometry of apoptosis; assay type: cell-based, human; details: MCF-7, 24 h
# Experimental: (§5) Cells were washed twice with cold PBS and resuspended in the Binding Buffer from the Kit. The FITC Annexin V and propidium iodide (PI) were added to 100 µL of cell suspension and incubated for 15 min at room temperature, protected from light. Then, 300 µL of Binding Buffer was added, and samples were analyzed using a flow cytometer. A total of 10,000 events were measured. The FACSDiva software (Version 6.1.3, BD Biosciences Systems, San Jose, CA, USA) was applied to analyze all flow cytometry data. The BD Cytometer Setup and Tracking Beads (BD Biosciences, San Diego, CA, USA) were used for the calibration of the flow cytometer.
# MDA-MB-231 cells [6] = experiment: Annexin V/PI flow cytometry of apoptosis; assay type: cell-based, human; details: MDA-MB-231, 24 h
# Experimental: as §5
# MCF-10A cells [7] = experiment: Clonogenic assay; assay type: cell-based; details: Homo sapiens; for IC50: 72 h exposure, 14 days culture, read-out: IC50 (M ± SD) in clonogenic assay
# Experimental: (§6) The clonogenic assay was carried out utilizing the previously published methodology. The MCF-7, MDA-MB-231, HCC1954, and MCF-10A cells (500 cells/2 mL) were seeded in a 12-well plate overnight. Afterward, studied derivatives or doxorubicin (1, 2.5, 5, 10, and 50 µM) were added to cells. The media was changed after 72 h to a compound-free one, and the cells were cultured for the following 14 days. Then, the cells were washed, fixed, and stained with 0.1% crystal violet. After washing, the plates were dried at room temperature. The colonies were recorded by ImageJ software (Version 1.30). The value of colonies in control (non-treated cells) was accepted as 100%. The effect of compounds on the colony-forming ability of cells was expressed as the percentage of colonies compared to the control.
# MCF-7 cells [8] = experiment: Clonogenic assay; assay type: cell-based, human; details: for IC50: Homo sapiens, MCF7, MCF-7, 72 h exposure, 14 days culture, read-out: IC50 (M ± SD) in clonogenic assay
# Experimental: as §6
# MDA-MB-231 cells [9] = experiment: Clonogenic assay; assay type: cell-based, human; details: for IC50: Homo sapiens, MDA-MB-231, 72 h exposure, 14 days culture, read-out: IC50 (M ± SD) in clonogenic assay
# Experimental: as §6
# HCC1954 cells = experiment: Clonogenic assay; assay type: cell-based, human; details: for IC50: Homo sapiens, HCC1954, 72 h exposure, 14 days culture, read-out: IC50 (M ± SD) in clonogenic assay
# Experimental: as §6
# 4T1 cells = experiment: MTT assay; assay type: cell-based, murine; details: Mus musculus, read-out: IC50, µM (M ± SD)
# Experimental: as §2, §3
# [10] = system: ICAM-1 in MDA-MB-231 cells; experiment: ICAM-1 ELISA in culture supernatants; assay type: cell-based, human; details: for ICAM-1 concentration: 2 µM (highest dose), control 841.55 pg/mL
# Experimental: as §4
# [11] = 24 h, 24 h, read-out: IC50, µM (M ± SD)
# [12] = 48 h, 48 h, read-out: IC50, µM (M ± SD)
IC50 (MCF-7 cells [8]) [nM],IC50 (MDA-MB-231 cells [9]) [nM],IC50 (HCC1954 cells) [nM],"IC50 (4T1 cells; 4T1, 24 h) [µM]","IC50 (4T1 cells; 4T1, 48 h) [µM]",Structure (SMILES),MAP1LC3B gene expression compared to control cells [1],BECN1 gene expression compared to control cells [2],IC50 (MCF-10A cells [3]; [11]) [µM],IC50 (MCF-10A cells [3]; [12]) [µM],MMP-9 concentration versus control [4],early apoptotic cells (MCF-7 cells [5]; 1 µM) [%],late apoptotic cells (MCF-7 cells [5]; 1 µM) [%],necrotic cells (MCF-7 cells [5]; 1 µM),early apoptotic cells (MDA-MB-231 cells [6]; 1 µM) [%],late apoptotic cells (MDA-MB-231 cells [6]; 1 µM) [%],necrotic cells (MDA-MB-231 cells [6]; 1 µM),IC50 (MCF-10A cells [7]) [nM],"ICAM-1 concentration ([10]; MDA-MB-231, 24 h) [pg/mL]",further results
420 ± 80,420 ± 110,430 ± 110,2.37 ± 0.25,1.98 ± 0.21,"COc1cccc2c1C(=O)c1c(O)c3c(c(O)c1C2=O)C[C@@](O)(C(=O)CO)C[C@@H]3O[C@H]1C[C@H](N)[C@H](O)[C@H](C)O1 [Dox, doxorubicin, reference compound]",significantly increased,significantly increased,15.9 ± 0.91,0.23 ± 0.05,decreased,0.55 ± 0.07,60.60 ± 7.35,31.75 ± 5.59% and 31.75%,0.10 ± 0.01,42.20 ± 17.25,51.25 ± 3.36% and 51.25%,470 ± 110,583.04,"ICAM-1 concentration versus control ([10]; MDA-MB-231, 24 h, 1.0 and 1.5 µM): increased"
420 ± 80,420 ± 110,430 ± 110,1.6 ± 0.14,1.62 ± 0.21,"O=C1CC(N2C(=O)C(=CC(Cl)=Cc3ccc([N+](=O)[O-])cc3)SC2=S)C(=O)N1c1ccc(O)cc1 (stereo not drawn) [Les-6287, 1-(4-hydroxyphenyl)-3-[5-[2-chloro-3-(4-nitrophenyl)prop-2-enylidene]-4-oxo-2-thioxothiazolidine-3-yl]pyrrolidine-2,5-dione]",did not affect,did not affect,93 ± 2.29,64.6 ± 0.68,decreased,3.85 ± 1.20,21.60 ± 0.78,0.50 ± 0.24%,2.10 ± 0.14,5.10 ± 0.49,0.90 ± 0.02%,> 50000,157.25,"IC50 (MCF-10A cells [3]; time point not specified (24 and 48 h), read-out: IC50 towards MCF-10A cells): > 64.6 µM; early apoptotic cells (MCF-7 cells [5]; 1.5 µM): 2.30 ± 0.42%; late apoptotic cells (MCF-7 cells [5]; 1.5 µM): 29.35 ± 6.43%; necrotic cells (MCF-7 cells [5]; 1.5 µM): 0.30 ± 0.11%; necrotic cells, range (MCF-7 cells [5]; 1 and 1.5 µM): 0.30–0.50%; early apoptotic cells (MDA-MB-231 cells [6]; 1.5 µM): 5.65 ± 0.92%; late apoptotic cells (MDA-MB-231 cells [6]; 1.5 µM): 29.00 ± 9.76%; necrotic cells (MDA-MB-231 cells [6]; 1.5 µM): 4.50 ± 1.82%; necrotic cells, range (MDA-MB-231 cells [6]; 1 and 1.5 µM): 0.90–4.50%; inhibition at 50 µM (MCF-10A cells [7]; compound at 50 µM, read-out: inhibition of the formation of colonies): 32.6%; formation of colonies (MCF-7 cells [8]; MCF-7, compound at 1 µM): totally inhibited; formation of colonies (MDA-MB-231 cells [9]; MDA-MB-231, compound at 1 µM): totally inhibited; formation of colonies (HCC1954 cells; HCC1954, compound at 1 µM): totally inhibited; inhibitory effect on ICAM-1 concentration relative to doxorubicin ([10]; MDA-MB-231): almost four times stronger"
